Measurements: US20210038503A1, “COMPOSITIONS AND METHODS FOR TOPICAL TREATMENT OF DERMAL AND OCULAR CONDITIONS” (GABADERM, INC., priority 2018, published 2021)
“Also recorded” adds a separate entry of the source. Read-outs that look alike come from different tables or passages of the source.

Tests used:
[1] = Experimental: Stability was determined visually by separation of the emulsion and also analytically by changes in measured concentration of the cream and/or the formation of degradation products. […] Heavier oils include petrolatum or mineral oil.
[2] = system: oxalobenzone treated ear; assay: Oxalobenzone induced mouse ear inflammatory model (ear thickness); assay type: in vivo; conditions: for Inflammation (ear thickness): 100 μl at 1 hour and 6 hours post challenge, 24 hours and 48 hours
Experimental: Animals were sensitized to oxalbenzone on the abdomen on day 2 with 150 μl 3% oxalbenzone. Animals were challenged on day 5 with 1% oxalobenzone to both sides of one ear. This served as an in vivo pharmacological disease models for psoriasis and atopic dermatitis.
Ear thickness was measured with calipers at 24 hours and 48 hours and compared to contralateral non-challenged ear. Ear thickness served as an indication of swelling due to inflammation. The greater the ear thickness, the greater the inflammation.

[3] = system: psoriatic lesions; conditions: for Number of psoriatic lesions: 2% propofol solution twice daily
Description: Areas of the lesion are roughly outlined.
The plaque psoriatic lesion was raised and more lightly colored than the unaffected skin.

[4] = system: skin
Remark: listed apart in the source
[5] = estimated 250 times lower than rat plasma levels
[6] = in vivo; cited from earlier work
[7] = in vivo; cited from earlier work; remark: listed apart in the source
[8] = local administration of propofol
[9] = 20% propofol-propylene glycol plus 30% w/w surfactant penetration enhancer
[10] = 20% w/w propofol in propylene glycol

Structure (SMILES): CC(C)c1cccc(C(C)C)c1O [propofol]
- Stability ([1]; oil-in-water or water-in-oil formulations with a heavier oil or longer chain oil (petrolatum or mineral oil)): stable
- Stability ([1]; penetration enhancer limited to less than 10% w/w, particularly propofol greater than 2%): stable
- Stability ([1]; propofol >10% w/w in HRT™ (gel or cream)): not stable
- Stability ([1]; propofol >10% w/w in Lipoderm®): not stable
- Stability ([1]; propofol >10% w/w in Medihol™ gel base): not stable
- Stability ([1]; propofol >10% w/w in Vanish-Pen™ Cream base): not stable
- Stability ([1]; propofol >10% w/w in VersaPro™ (lotion or cream)): not stable
- Stability ([1]; propofol at 10% w/w in Lipoderm® (mineral oil-free)): not stable
- Inflammation (ear thickness) ([2]; 10% w/w propofol in DMSO): significantly reduces inflammation
- Inflammation (ear thickness) ([2]; 20% w/w propofol in DMSO): significantly reduces inflammation
- Skin inflammation / ear swelling ([2]; topical propofol, formulation not specified at the place): reduces skin inflammation; also recorded: reduces ear swelling and inflammation
- Number of psoriatic lesions ([3]; after a week): further reduced
- Number of psoriatic lesions ([3]; after three days): reduced
- Plaque psoriatic lesion height and area, left forearm ([3]; 10% propofol in cream twice daily, over the course of treatment): diminished in height and area
- Local anti-inflammatory effect [3, 8]: anti-inflammatory effects locally
- Sustained anti-nociceptive effect [3, 8]: reduced sensation of itch and burning
- Psoriatic lesions (FIG. 7 legend) ([3]; propofol in a cream based formulation): reduced
- Neurogenic inflammation ([3]; repeated application of propofol): less neurogenic inflammation
- Gutate and plaque psoriatic lesions ([3]; topical application of propofol, summary): resolution of gutate and plaque psoriatic lesions
- Acute skin reaction (redness with wheal-flare effect) ([4]; 10% propofol in DMSO): significant burning and inflammation
- Time to onset of burning and inflammation after treatment ([4]; 10% propofol in DMSO): 10 to 15 min
- Time until acute effect resolved ([4]; 10% propofol in DMSO): about 90 minutes
- Treatment effect despite initial inflammatory response ([4]; 10% propofol in DMSO): significant treatment effect
- Acute skin reaction (redness with wheal-flare effect) ([4]; 10% propofol in mineral oil containing cream): did not result in this effect
- Increase of plasma concentration [9]: 3 to 5 fold
- Plasma concentration [9]: approximately 350 ng/ml
- Increase of plasma concentration [10]: 2-3 fold
- Plasma concentration [10]: 175 to 200 ng/mL
- Plasma concentration (rats, 500 mg of 100% propofol on skin, ~[…] body surface area): 400 ng/mL
- Plasma levels (rats, 20% w/w propofol in petrolatum (100 mg total dose), ~[…] body surface area): 50 to 100 ng/mL
- Human equivalent plasma concentration [5]: 0.4 to 2 ng/mL
- Plasma levels at which wakening from propofol anesthesia occurs [6]: less than 500 μg/ml
- Plasma steady state levels used to maintain anesthetized state [6]: 1,000-2,000 ng/ml
- Oral bioavailability [7]: < 10%
